The numbers were not newly measured in article PMC5611894 (Journal of Alzheimer's Disease, 2017), which cites them from elsewhere.

As a reminder, the Kd is the constant that tells how readily two partners part at equilibrium.

In one series the target is Aβ42 monomers. The note with it: SPR equilibrium binding, Aβ42 monomers immobilized on chip.
The target of a further series is Aβ42 oligomers. The note with it: SPR equilibrium binding, Aβ42 oligomers immobilized on chip.

Regarding `CC[C@]12C=CCN3CC[C@]4(C(=C(C(=O)OC)C1)Nc1ccccc14)[C@@H]32` [tabersonine], the Kd at Aβ42 monomers was 69 µM; at Aβ42 oligomers, 535 µM.
